Square brackets hold non-standard residues; d marks the D form. Peptide text beside a SMILES is read from it. * marks the point of attachment. PhAc = O=C(Cc1ccccc1)*
Legend:
[1] = Retention of potency in PBS containing 10 percent mouse or human serum; type: in vitro ADME; conditions: 24 hours in PBS at 7.2-7.4 containing 10 percent mouse or human serum
BALB/c mice = test: Adoptive transfer delayed type hypersensitivity in mice (oxazolone); type: in vivo, mouse
Protocol: An adoptive transfer delayed-type hypersensitivity murine model has been developed using splenic T cells primed to oxazolone. This model is described in Elices et al., Clin. Exp. Rheum., 11(Suppl. 8):577-580 (1993), whose procedures were followed here.
Thus, BALB/c mice were shaved on the belly and painted (50 μl on the belly and 5 μl on each paw) with three percent oxazolone in acetone/olive oil (4:1) at days zero and 1. At day 5, the mice were sacrificed, their spleens removed, and splenic T cells were obtained via nylon wool columns.
Normal saline or saline containing 25×10^6 /animal of the oxazolone-immune T cells were separately injected into naive mice. The mice were then challenged by painting 10 μl of 2 percent oxazolone onto one ear each. All procedures were carried out under sterile conditions and in endotoxin-free buffers.
Prior to challenge or saline injection, the mice were implanted with pumps that subcutaneously administered normal saline, normal saline containing the compound, Compound ID No. 896.52, N-phenylacetyl-Leu-Asp-Phe-D-Pro-NH2, or normal saline containing a compound with a scrambled sequence continually at 6 mg/kg/day for a 24-hour time period. The swelling diameter at the site of challenge or saline injection was measured with a microcaliper 24 hours thereafter.
An expanded study was carried out as described above except that a scrambled compound control was not used as a control for further inhibitor compounds of Table 1 with larger groups of mice. Statistical analyses were carried out versus injection of vehicle alone.

[2] = test system: New Zealand white rabbits; test: Rabbit heterotopic cardiac allograft model; type: in vivo
Text: New Zealand white female rabbits (Charles River Lab., Saint Laurent, Quebec), between 3.5 and 4 kg underwent heterotopic cardiac transplant following an experimental protocol previously described [Alonso et al., Am. J. Pathol., 87:415-442 (1977); Clausell et al., Circulation, 89:2768-2779 (1994)]. The animals were unselected to favor an HLA-mismatch, the host rabbits were Pasteurella-free and the donors, outbred animals. Both host and donor rabbits were fed Purina 5321-0.5 percent cholesterol diet (Research Diets Inc., New Brunswick, N.J.), a strategy that has proven useful in accelerating the process of allograft arteriopathy [Alonso et al., Am, J. Pathol., 87:415-442 (1977)]. The diet was commenced four days prior to the transplant and continued in the recipient of the transplant until the completion of the experimental period.
The technique of heterotopic cardiac transplantation has been previously described [Clausell et al., Circulation, 89:2768-2779 (1994)]. Briefly, a vertical incision was performed in the anterior aspect of the neck of the recipient rabbit and the left common carotid artery and the ipsilateral external jugular vein were isolated. The cardiac allograft was placed in the neck by anastomosing the aorta end-to-side to the recipient's carotid artery and the pulmonary end-to-side to the recipient's external jugular vein, following a total period of ischemia for the donor hearts of approximately 30 minutes. Postoperative care was in compliance with the Principles of Laboratory Animal Care formulated by the Canadian National Society for Medical Research.
Beginning the day of the transplant, the animals were randomized and treated with either scrambled compound (control group) at 1 mg/kg s.c. or the inhibitor compound at 1 mg/kg s.c. The doses of the compounds were empirically extrapolated to the in vivo model based on preliminary in vitro studies, of Table 1. No other immunosuppression therapy was administered. The grafts were monitored daily by palpation and maintained for 7 to 8 days, a previously described endpoint that was associated with myocardial rejection (impaired cardiac contractility) and development of the allograft arteriopathy in this model [Clausell et al., Circulation, 89:2768-2779 (1994)]. A total of fourteen animals were studied in the control (n=7) and treated (n=7) groups.
The animals were sacrificed using a lethal dose of euthanol (480 mg i.v.) (MTC Pharmaceutical, Cambridge, ON), host and donor hearts were removed, and the coronary arteries were perfused with saline through the aorta, followed by light fixation by perfusion with 2 percent paraformaldehyde (Sigma, St, Louis, Mo.). […] Different sections of the hearts were either saved in 10 percent formalin (BDH Inc., Toronto, ON) for light microscopy studies or immediately frozen in O.T.C. Compound Tissue Tek (Miles Inc., Elkart, Ind.) for specific immunohistochemistry studies.
Three different paraffin-embedded tissue sections from host and donor hearts from both control and treated rabbits were stained by the Movat pentachrome method for light microscopy. Morphometric analysis was performed using a Zeiss microscope attached to a computer-generated video analysis system (Perceptics Inc., NuVision software), as described in Clausell et al., Circulation, 89:2768-2779 (1994). The number of vessels with intimal lesions were counted in all three heart sections from each animal studied and are expressed as a percentage of the total vessel number.
In the host hearts, 999 vessels in the control group and 1054 vessels in the treated group were analyzed. In the donor hearts, 827 vessels in the control group and 617 vessels in the treated group were analyzed. To determine the severity of intimal thickening, the diameter of each traceable vessel in all three sections was measured and the coronary arteries were categorized as small (diameter <100 μm), medium (diameter >100<500 μm) and large (diameter >500 μm). […]

[3] = test system: Porcine peripheral blood lymphocytes; test: In vitro porcine allograft model: transendothelial lymphocyte migration; type: cell-based; conditions: 10 μg/ml in the medium; IL-1β-stimulated SMC
Protocol: A similar study was carried out in vitro using porcine coronary artery endothelial cells (EC; as are present in the IEL) and smooth muscle cells (SMC; as are present in the medial layer of the artery). The two cell types were cultured using a membrane transwell system, with the SMC on the bottom layer in M-199 medium (Gibco Labs.). The SMC were stimulated with 100 ng/ml of interleukin-1β (IL-1β) for 24 hours prior to the start of the assay. Porcine peripheral blood lymphocytes were separated by Ficoll-Hypaque, radiolabeled and incubated overnight (about 18 hours) on the EC.

SJL/J mice = test: Experimental autoimmune encephalomyelitis in mice; type: in vivo; conditions: 1 mg/mouse i.p. at days 8 and 9; FIG. 6; versus control compound
Protocol: EAE was induced in female SJL/J mice (8 to 14 weeks old) by immunization on day zero with 50 μg of a compound corresponding to positions 139-151 of PLP emulsified in a 1:1 mixture of PBS and complete Freund's adjuvant (CFA). Each mouse was injected with 0.2 ml of the adjuvant emulsion subcutaneously (s.c.) at two sites in the hind flank. All mice received 10^7 killed Bordetella pertussis units in 100 μl were injected intravenously 24 to 72 hours later.
Mice were observed daily, beginning at day 8 for clinical signs of EAE, and disease was scored on a scale of 0-5 as: 0=no disease; 1=floppy tail; 2=moderate hind limb weakness; 3=paraparesis; 4=paraplegis with moderate forelimb weakness; 5=qualdriplegis or premoribund state.
The inhibitor compound, Compound ID No. 896.52, N-phenylacetyl-Leu-Asp-Phe-D-Pro-NH2 was administered intraperitoneally at 1 mg/mouse in 0.2 ml of incomplete Freund's adjuvant at days 8 and 9. A compound having a scrambled sequence [N-phenylacetyl-Asp-Leu-Phe-D-Pro-NH2 ] was similarly administered to serve as a control.
Summed or averaged scores for clinical signs were plotted vs. time. The area under the resulting curves was calculated between day 8 and day 35 to calculate percentage inhibition of EAE by an inhibitor compound. The percent inhibition was calculated as follows:
[…]

asthmatic sheep = test: Treatment of asthmatic sheep (Ascaris suum antigen, crossover); type: in vivo; conditions: nebulized 1 mg/kg; FIG. 7
Protocol: Six asthmatic sheep were treated in a double blind cross-over study. […] This study was carried out generally as described in Abraham et al., J. Clin. Invest., 93:776-787 (1994).
The inhibitor compound used here was Compound ID No. 896.52, N-phenylacetyl-Leu-Asp-Phe-D-Pro-NH2, with a control compound that comprised the previously described compound having the same residues in a scrambled sequence. The vehicle for the nebulized compounds was phosphate-buffered saline. The compounds were administered at a dose of 1 mg/kg each, twice a day for three days prior to challenge, as well as 0.5 hours prior to and four hours post challenge on day 4. Because this was a crossover study, each animal received one or the other treatment, followed by a rest and then the other treatment. Each animal therefore served as its own control.
Post challenge airway responsiveness was also assayed. Here, specific lung resistance, SRL, returned to baseline values 24 hours after challenge, however, the sheep were hyperresponsive to inhaled carbachol at that time.

CC(C)C[C@H](NC(=O)Cc1ccccc1)C(=O)N[C@@H](CC(=O)O)C(=O)N[C@@H](Cc1ccccc1)C(=O)N1CCC[C@@H]1C(N)=O [896.52, N-phenylacetyl-Leu-Asp-Phe-D-Pro-NH2] (PhAc-LDF[dP]-NH2)
loss of potency in serum [1]: no loss of potency
Percent Inhibition (post-challenge swelling) (BALB/c mice; expanded study, versus vehicle alone): 36%
reduction of inflammation (swelling diameter at challenge site) (BALB/c mice; initial study, 6 mg/kg/day s.c. pump, 24-hour, FIG. 5): reduced this type of CS-1/VLA-4-mediated immunoinflammation
Vessel Intimal Thickening: Percent of Vessels ([2]; donor heart, 1 mg/kg s.c.): 35%
Vessel Intimal Thickening: Severity (Percent of Vessel area) ([2]; donor heart, 1 mg/kg s.c.): 16%
Baseline of incidence of intimal thickening ([2]; rabbit own host heart): 12%
Baseline of severity of intimal thickening ([2]; rabbit own host heart): 12%
reduction of transendothelial lymphocyte migration [3]: about 30%
clinical signs of EAE (SJL/J mice): marked improvement in clinical signs
change from baseline specific lung resistance (SRL) on challenge (asthmatic sheep): less of a change from baseline specific lung resistance

— patent US5821231A, “CS-1 peptidomimetics, compositions and methods of using same” (Cytel Corporation, priority 1995, dated 1998)
